Laboratory results as given in ChEMBL document CHEMBL2311477, “Alpha-heteroatom derivatized analogues of 3-(acetylhydroxyamino)propyl phosphonic acid (FR900098) as antimalarials” (J Med Chem, 2013).

Legend:
[1] = Inhibition of Escherichia coli DXR assessed as reduction of NADPH in NADP+ by spectrophotometric analysis
[2] = tested on: Plasmodium falciparum; assay: Antimalarial activity against Plasmodium falciparum K1 infected in human erythrocytes assessed as parasite growth inhibition; type: functional, organism-based
[3] = tested on: Escherichia coli; assay: Inhibition of Escherichia coli DXR assessed as reduction of NADPH in NADP+ at 100 nM by spectrophotometric analysis
[4] = tested on: Plasmodium falciparum; assay: Antimalarial activity against Plasmodium falciparum 3D7 assessed as parasite growth inhibition; type: functional, organism-based
[5] = tested on: Plasmodium falciparum; assay: Antimalarial activity against chloroquine-sensitive Plasmodium falciparum 3D7 assessed as parasite growth inhibition; type: functional, organism-based

## CC(=O)N(O)CCC(O)P(=O)(O)O (racemic)
[1]; read-out: IC50
  IC50: 0.0522 µM
[2]
  IC50: 1.82 µM

## CC(=O)N(O)CCCP(=O)(O)O [FR-900098]
[1]; read-out: IC50
  IC50: 0.0151 µM

## COC(CCN(O)C(C)=O)P(=O)(O)O (racemic)
[2]
  IC50: 4 µM
[3]
  inhibition: 4.14%

## CC(=O)N(O)CCC(n1cc(C(C)(C)C)nn1)P(=O)(O)O (racemic)
[1]; read-out: IC50
  IC50: 0.207 µM
[2]
  IC50: 7.76 µM

## CC(=O)N(O)CCC(N=[N+]=[N-])P(=O)(O)O (racemic)
[1]; read-out: IC50
  IC50: 0.0746 µM
[2]
  IC50: 1.98 µM

## CC(=O)N(O)CCC(n1ccnn1)P(=O)(O)O (racemic)
[2]
  IC50: 8.96 µM
[3]
  inhibition: 3.32%

## CC(=O)N(O)CCC(NC(=O)Nc1ccccc1)P(=O)(O)O (racemic)
[2]
  IC50: > 64 µM
[3]
  inhibition: 1.3%

## CC(=O)N(O)CCC(n1cc(-c2ccccc2)nn1)P(=O)(O)O (racemic)
[1]; read-out: IC50
  IC50: 1.13 µM
[2]
  IC50: 2.75 µM

## O=CN(O)CCCP(=O)(O)O [FOSMIDOMYCIN]
[4]
  IC50: 1 µM

## CC(=O)N(O)CCC(NC(=O)c1ccccc1)P(=O)(O)O (racemic)
[2]
  IC50: 49 µM
[3]
  inhibition: 1.42%

## CC(=O)N(O)Cc1ccccc1P(OCOC(=O)C(C)(C)C)OCOC(=O)C(C)(C)C
[5]
  IC50: 50 µM

## CC(=O)N(O)CCC(Oc1ccccc1)P(=O)(O)O (racemic)
[1]
  IC50: Not Active
[2]
  IC50: 13 µM
